Holding throughout (assay): growth of human tumour cells (NCI), 48 h
In test [1] the test system is A549 NSCLC.
In test [2] the test system is ACHN renal.
For test [3], the system named is DU-145 prostate.
In test [4] the test system is HOP-92 NSCLC.
The test system of test [5] is IGROV1 ovarian.
The test system of test [6] is MDA-MB-231 breast.
Test [7] concerns NCI-H226 lung.
Test [8] concerns SF-295 CNS.
Test [9] has as its system SN12C renal.
Test [10] has as its system RXF 393 renal.

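Grown in 96-well plates, cells were treated for 48 hours with each compound at five concentrations. Insufficient inhibition: endpoint recorded as highest concentration tested. GI50 = concentration required for 50% inhibition of growth. TGI is the concentration that stops growth completely.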

For `COc1ccc(Cn2cc3c(c2-c2ccccc2)CCc2cnoc2-3)cc1`, the GI50 was 0.293 µM in [1]; 0.215 µM in test [2]; 0.359 µM in test [3]; 3.31 µM in test [4]; 114 nM in test [5]; 0.37 µM in test [6]. Also, the GI50 in test [7] is 0.476 µM; in test [8], 0.0652 µM; in test [9] it was 545 nM. For the same molecule, the TGI is above 100 µM in test [1]; above 100 µM in test [2]; 2.57 µM in [3]; above 100 µM in test [4]; above 100 µM in [5]; above 100 µM in test [6]. For the same molecule, the TGI in test [7], in test [8] and in test [9] was above 100 µM throughout.
On to `COc1ccc(-n2cc(-c3cc(OC)c(OC)c(OC)c3)nc2SCc2cccc(C#N)c2)cc1OC`, for which the GI50 in test [1] was 82.3 µM; in [2] it was above 100 µM; in [3], above 100 µM; in [4] it was 27.8 µM; in test [5] it was above 100000 nM; in test [6], above 100 µM. Further, the values for the GI50 in [7], in test [8] and in [9] were above 100 µM, above 100 µM and above 100000 nM, respectively. For the same molecule, the TGI in [1] was above 100 µM; in [2], above 100 µM; in [3], above 100 µM; in [4], 78.9 µM; in [5], above 100 µM; in test [6], above 100 µM. Further, the TGI in test [7], in test [8] and in test [9] was above 100 µM each time.
Consider `COc1ccc(-c2nc(NC(=O)CS(=O)(=O)c3ccc(F)cc3)sc2C)cc1`, for which the GI50 in [2] is 30 µM; in [3], 34.5 µM; in [4] it was 14.2 µM; in [5], 28200 nM; in test [6] it was 23.2 µM; in [7], 23.8 µM. The values for the GI50 in test [10], in test [8] and in test [9] were 15.6 µM, 18.8 µM and 19000 nM, respectively. Also, the TGI in [2] was above 100 µM; in test [3], above 100 µM; in test [4] it was 48 µM; in [5], above 100 µM; in [6], above 100 µM; in test [7] it was 87.8 µM. Further, the TGI in [10] amounted to 49.7 µM; in test [8] it was 50.1 µM; in test [9], 52.5 µM.
On to `COc1ccc2c(=O)c(-c3cc(OC)c(OC)cc3OC)coc2c1`, for which the TGI in [1], in [2], in test [3], in [5], in [6] and in test [7] was above 100 µM each time. In addition, the TGI is 24.2 µM in [10], 12.5 µM in test [8] and above 100 µM in test [9].
As for `CC(C)(C)OC(=O)N(CCCCN(CCCn1c2c(c3ccccc3c1=O)C(=O)c1ccccc1-2)C(=O)OC(C)(C)C)CCCn1c2c(c3ccccc3c1=O)C(=O)c1ccccc1-2`, the GI50 was 18.9 µM in test [1]; 14.3 µM in test [2]; 48.1 µM in [3]; 97 µM in test [4]; 13.9 µM in test [6]; 99.2 µM in test [7]. The GI50 in test [8] is 14 µM; in test [9], 36000 nM. For the same molecule, the TGI in test [1] was above 100 µM; in [2], above 100 µM; in [3], above 100 µM; in test [4], above 100 µM; in test [6], 47.2 µM; in test [7] it was above 100 µM. The TGI in test [8] and in [9] was above 100 µM throughout.
For the molecule `CN(C)Cc1ccc(NC(=O)c2cncc(C#Cc3cnc(N)c4ncccc34)c2)cc1C(F)(F)F`, the GI50 was 1.67 µM in test [1]; 1.52 µM in [2]; 1.73 µM in [3]; 1.04 µM in test [4]; 1470 nM in test [5]; 1.07 µM in test [6]. Moreover, the GI50 in [10] was 1.31 µM; in [8], 1.59 µM; in test [9], 1540 nM. Moreover, the TGI in test [1] was found to be 3.41 µM; in test [2], 2.89 µM; in test [3] it was 3.16 µM; in test [4], 4.66 µM; in test [5], 2.97 µM; in [6], 2.36 µM. The TGI is 2.88 µM in test [10], 2.98 µM in [8] and 3.02 µM in test [9].
Turning to `Nc1[nH]nc(Nc2ccccc2)c1-c1nc2ccccc2s1`, the GI50 in test [1] was 2.96 µM; in test [2], 2.08 µM; in [3], 3.02 µM; in test [4], 1.4 µM; in [5] it was 2580 nM; in test [6], 1.59 µM. In addition, the GI50 in [7] is 3.71 µM; in [8], 1.56 µM; in test [9], 1580 nM. Moreover, the TGI worked out at 11.9 µM in [1]; 6.27 µM in [2]; 11.6 µM in test [3]; 3.77 µM in test [4]; 8.88 µM in test [5]; 3.75 µM in test [6]. Further, the values for the TGI in [7], in test [8] and in test [9] were 17 µM, 3.27 µM and 3.24 µM, respectively.
Take `OCc1c(-c2cccs2)oc(-c2cccs2)c1CO`: the GI50 was 54.9 µM in test [1]; 23.8 µM in test [2]; 67.9 µM in [3]; 42.8 µM in test [4]; 58300 nM in [5]; 47.3 µM in test [6]. For the same molecule, the GI50 in test [7] is 50.3 µM; in test [10], 22.7 µM; in test [8], 27.7 µM. Also, the TGI in [1] is above 100 µM; in [2], 72.1 µM; in test [3], above 100 µM; in test [4] it was above 100 µM; in [5] it was above 100 µM; in test [6], 94 µM. The figures for the TGI in test [7], in [10] and in test [8] were above 100 µM, 78.5 µM and above 100 µM, respectively.
With `O=S(=O)(F)Cc1ccccc1`, the TGI in [1], in test [2], in [3], in [4], in test [5] and in test [6] was above 100 µM throughout. Further, the TGI in test [7], in test [8] and in test [9] was above 100 µM in each case.

Values taken from PubChem BioAssay (NCI).
